Source: PMC12042115 (mLife, 2025)
Values joined by “and” are separate entries in the source; they are usually repeats but may differ in a detail not shown here. Identical values can stand only once. Like-named read-outs stand apart in the source and are kept apart here.

Test system: wild‐type BCG cells
Assay type: cell-based, M. bovis BCG
Details: for Mean Ratio (GDI5755_2d vs DMSO_2d): 2d; for Ratio: single ratios, GDI5755_3d vs DMSO_3d

## O=C(Oc1ccc(Cl)cc1)c1ccc(N2CCOCC2)c([N+](=O)[O-])c1 [GDI‐5755]
Protein BCG_3079c A0A0H3M8N0 NADPH-dependent FMN reductase-like domain-containing protein，FMN reductase, up-regulated
  Mean Ratio (GDI5755_2d vs DMSO_2d): 1.67
Protein BCG_3185c A0A0H3M8B9 Possible dioxygenase, up-regulated
  Mean Ratio (GDI5755_2d vs DMSO_2d): 2.02
Protein BCG_3281c A0A0H3MAS0 Probable transmembrane alkane 1-monooxygenase alkB, up-regulated
  Mean Ratio (GDI5755_2d vs DMSO_2d): 1.48
Protein BCG_3298 A0A0H3MAT3 DUF1490 family protein, up-regulated
  Mean Ratio (GDI5755_2d vs DMSO_2d): 1.92
Protein BCG_3319c A0A0H3MAV3 L-lysine 6-transaminase, up-regulated
  Mean Ratio (GDI5755_2d vs DMSO_2d): 1.48
Protein BCG_3476 A0A0H3MB64 Probable dioxygenase, up-regulated
  Mean Ratio (GDI5755_2d vs DMSO_2d): 1.55
Protein BCG_3588 A0A0H3M9C1 Probable conserved membrane protein, up-regulated
  Mean Ratio (GDI5755_2d vs DMSO_2d): 1.81
Protein BCG_3590 A0A0H3MBE7 Rieske-type oxygenase, up-regulated
  Mean Ratio (GDI5755_2d vs DMSO_2d): 1.45
Protein BCG_3591 A0A0H3MID2 Uncharacterized protein,BCG_3591, up-regulated
  Mean Ratio (GDI5755_2d vs DMSO_2d): 1.62
Protein BCG_3826c A1KQ98 Putative S-adenosyl-L-methionine-dependent methyltransferase BCG_3826c, up-regulated
  Mean Ratio (GDI5755_2d vs DMSO_2d): 1.54
Protein BCG_3917c A0A0H3MJE2 Monooxygenase ethA, up-regulated
  Mean Ratio (GDI5755_2d vs DMSO_2d): 1.44
s002 sheet P value, unrounded
  Mean_Ratio_GDI5755_2d-VS-WT_2d_control: 3.462 and 2.763 and 2.713 and 2.648 and 2.17
s002 sheet annot_file, c8 (rounded)
  Mean_Ratio_GDI5755_2d-VS-WT_2d_control: 1.08 and 0.90 and 1.06 and 0.93 and 0.81
s002 sheet annot_file, c9 (unrounded)
  Mean_Ratio_GDI5755_2d-VS-WT_2d_control: 1.083 and 0.8951 and 1.059 and 0.9258 and 0.8124
s003 sheet P value
  Mean_Ratio_GDI5755_3d-VS-WT_3d_control: 3.94 and 2.77 and 2.53 and 2.26 and 2.25
s003 sheet annot_file
  Mean_Ratio_GDI5755_3d-VS-WT_3d_control: 1.18 and 1.02 and 1.00
Protein A0A0G2Q9F3, BCG_0030c (Rv3924c), Large ribosomal subunit protein bL34
  Ratio: 0.8126 and 0.7464 and 0.864 and 0.7929
Protein A0A0H3M7L0, BCG_2659c (Rv2632c), DUF1876 domain-containing protein
  Ratio: 0.6783 and 0.84 and 0.8345 and 0.8579
Protein A0A0H3M8R4, BCG_3395 (Rv1267c), Possible transcriptional regulatory protein embR2
  Ratio: 0.7934 and 0.8013 and 0.8041 and 0.8107
Protein A0A0H3M499, BCG_1243 (Rv1180/Rv1181), Probable polyketide beta-ketoacyl synthase pks3
  Ratio: 0.7824 and 0.8155 and 0.7985 and 0.8135
Protein A0A0H3M677, BCG_1564 (Rv1500), Probable glycosyltransferase
  Ratio: 0.8075 and 0.8276 and 0.7828 and 0.8014
Protein A0A0H3MA33, BCG_1381c (Rv1320c), Possible adenylate cyclase
  Ratio: 0.785 and 0.7965 and 0.7852 and 0.8412
Protein A0A0H3MBI4, BCG_2001A (Rv1962A), Antitoxin VapB35
  Ratio: 0.8087 and 0.8452 and 0.7652 and 0.7971
Protein A0A0H3MBL1, BCG_3682c (Rv3624c), Hypoxanthine phosphoribosyltransferase
  Ratio: 0.7684 and 0.8491 and 0.778 and 0.8193
Protein A0A0H3MDB0, BCG_2775c (Rv2759c), Ribonuclease VapC
  Ratio: 0.8535 and 0.7284 and 0.8794 and 0.7453
Protein A1KPC8, BCG_3507c (Rv3441c), Phosphoglucosamine mutase
  Ratio: 0.7677 and 0.7655 and 0.8493 and 0.8355
Third day, 2×MIC
  proteome downregulated: 49.6%
up-regulated, A0A0H3M0N8, Mtb Rv0097, Possible oxidoreductase
  Mean_Ratio (GDI5755_3d vs DMSO_3d), protein BCG_0130: 1.5
up-regulated, A0A0H3M1F5, Mtb MRA_0147, DUF427 domain-containing protein
  Mean_Ratio (GDI5755_3d vs DMSO_3d), protein BCG_0176: 1.5
up-regulated, A0A0H3M1W6, Mtb Rv0578c, PE-PGRS family protein
  Mean_Ratio (GDI5755_3d vs DMSO_3d), protein BCG_0623c: 1.8
up-regulated, A0A0H3M1Y1, Mtb Rv0313, Transmembrane protein
  Mean_Ratio (GDI5755_3d vs DMSO_3d), protein BCG_0353: 1.6
up-regulated, A0A0H3M2R5, Mtb Rv0190, Copper-sensing transcriptional repressor RicR
  Mean_Ratio (GDI5755_3d vs DMSO_3d), protein BCG_0227: 1.4
up-regulated, A0A0H3M2T8, Mtb Rv0677c, Possible conserved membrane protein mmpS5
  Mean_Ratio (GDI5755_3d vs DMSO_3d), protein BCG_0726c: 1.4
up-regulated, A0A0H3M3D0, Mtb Rv1187, L-glutamate gamma-semialdehyde dehydrogenase
  Mean_Ratio (GDI5755_3d vs DMSO_3d), protein BCG_1249: 1.6
up-regulated, A0A0H3M3I9, Mtb Rv1275, Lipoprotein lprC
  Mean_Ratio (GDI5755_3d vs DMSO_3d), protein BCG_1334: 1.3
up-regulated, A0A0H3M3L0, Conserved hypothetical transmembrane protein
  Mean_Ratio (GDI5755_3d vs DMSO_3d), protein A0A0H3M3L0Rv1303: 1.4
up-regulated, A0A0H3M3L9, Mtb Rv0467, isocitrate lyase
  Mean_Ratio (GDI5755_3d vs DMSO_3d), protein BCG_0507: 1.5
up-regulated, A0A0H3M3N1, Mtb Rv1342c, Conserved membrane protein
  Mean_Ratio (GDI5755_3d vs DMSO_3d), protein BCG_1404c: 1.5
up-regulated, A0A0H3M3P8, Mtb MRA_1004, Uncharacterized protein
  Mean_Ratio (GDI5755_3d vs DMSO_3d), protein BCG_1053: 1.5
up-regulated, A0A0H3M3S8, Mtb Rv1411c, Lipoarabinomannan carrier protein LprG
  Mean_Ratio (GDI5755_3d vs DMSO_3d), protein BCG_1472c: 1.4
up-regulated, A0A0H3M3U8, Mtb Rv0534c, 1,4-dihydroxy-2-naphthoate octaprenyltransferase, menA
  Mean_Ratio (GDI5755_3d vs DMSO_3d), protein BCG_0578c: 1.9
up-regulated, A0A0H3M4E4, Mtb Rv1623c, integral membrane cytochrome D ubiquinol oxidase (Subunit I) cydA
  Mean_Ratio (GDI5755_3d vs DMSO_3d), protein BCG_1661c: 1.6
up-regulated, A0A0H3M4W6, Mtb Rv0968, DUF1490 family protein
  Mean_Ratio (GDI5755_3d vs DMSO_3d), protein BCG_1022: 1.5
up-regulated, A0A0H3M5K5, Mtb Rv1748, DUF4129 domain-containing protein
  Mean_Ratio (GDI5755_3d vs DMSO_3d), protein BCG_1787: 1.4
up-regulated, A0A0H3M6A1, Mtb Rv1532c, Thioesterase domain-containing protein
  Mean_Ratio (GDI5755_3d vs DMSO_3d), protein BCG_1584c: 1.3
up-regulated, A0A0H3M6T8, Mtb MRA_1768B, Uncharacterized protein
  Mean_Ratio (GDI5755_3d vs DMSO_3d), protein BCG_1795c: 1.4
up-regulated, A0A0H3M7D9, Mtb Rv1959c, Toxin ParE1
  Mean_Ratio (GDI5755_3d vs DMSO_3d), protein BCG_1998c: 1.4
up-regulated, A0A0H3M7F6, Mtb Rv2560, proline and glycine rich transmembrane protein
  Mean_Ratio (GDI5755_3d vs DMSO_3d), protein BCG_2583: 1.7
up-regulated, A0A0H3M7K8, Mtb Rv0244c, acyl-CoA dehydrogenase fadE5
  Mean_Ratio (GDI5755_3d vs DMSO_3d), protein BCG_0282c: 1.6
up-regulated, A0A0H3M7L3, Mtb Rv0249c, Succinate dehydrogenase [membrane anchor subunit]
  Mean_Ratio (GDI5755_3d vs DMSO_3d), protein BCG_0287c: 1.4
up-regulated, A0A0H3M7M3, Mtb Rv2053c, transmembrane protein
  Mean_Ratio (GDI5755_3d vs DMSO_3d), protein BCG_2072c: 1.6
up-regulated, A0A0H3M7S6, Mtb Rv2710, RNA polymerase sigma factor, sigB
  Mean_Ratio (GDI5755_3d vs DMSO_3d), protein BCG_2723: 1.3
up-regulated, A0A0H3M7W9, Mtb Rv0384c, Chaperone protein ClpB
  Mean_Ratio (GDI5755_3d vs DMSO_3d), protein BCG_0422c: 1.5
up-regulated, A0A0H3M8B9, Mtb Rv3161c, Dioxygenase
  Mean_Ratio (GDI5755_3d vs DMSO_3d), protein BCG_3185c: 2.2
up-regulated, A0A0H3M8D0, Mtb Rv3171c, Possible non-heme haloperoxidase hpx
  Mean_Ratio (GDI5755_3d vs DMSO_3d), protein BCG_3195c: 1.4
up-regulated, A0A0H3M8M0, Mtb Rv0679c, Conserved hypothetical threonine rich protein
  Mean_Ratio (GDI5755_3d vs DMSO_3d), protein BCG_0728c: 1.4
up-regulated, A0A0H3M8N0, Mtb Rv3054c, NADPH-dependent FMN reductase-like domain-containing protein
  Mean_Ratio (GDI5755_3d vs DMSO_3d), protein BCG_3079c: 2.0
up-regulated, A0A0H3M8N5, Mtb Rv3059, Probable cytochrome P450 136 cyp136
  Mean_Ratio (GDI5755_3d vs DMSO_3d), protein BCG_3084: 1.3
up-regulated, A0A0H3M8U1, Mtb Rv3130c, Diacylglycerol O-acyltransferase
  Mean_Ratio (GDI5755_3d vs DMSO_3d), protein BCG_3153c: 1.4
up-regulated, A0A0H3M8U9, Mtb Rv2497c, Probable pyruvate dehydrogenase E1 component (Alpha subunit) pdhA
  Mean_Ratio (GDI5755_3d vs DMSO_3d), protein BCG_2517c: 1.4
up-regulated, A0A0H3M8V5, Mtb Rv3160c, Possible transcriptional regulatory protein (Probably tetR-family)
  Mean_Ratio (GDI5755_3d vs DMSO_3d), protein BCG_3184c: 1.4
up-regulated, A0A0H3M9C1, Mtb Rv3524, Serine/threonine-protein kinase PknD(NU-6027 target)
  Mean_Ratio (GDI5755_3d vs DMSO_3d), protein BCG_3588: 1.8
up-regulated, A0A0H3M9C3, Mtb Rv2708c, DUF3039 domain-containing protein
  Mean_Ratio (GDI5755_3d vs DMSO_3d), protein BCG_2721c: 1.4
up-regulated, A0A0H3M9F1, Mtb Rv1057, YVTN family beta-propeller repeat protein
  Mean_Ratio (GDI5755_3d vs DMSO_3d), protein BCG_1115: 1.5
up-regulated, A0A0H3M9G5, conserved transmembrane protein
  Mean_Ratio (GDI5755_3d vs DMSO_3d), protein BCG_1130: 1.5
up-regulated, A0A0H3M9L8, Mtb Rv2792c, Possible resolvase
  Mean_Ratio (GDI5755_3d vs DMSO_3d), protein BCG_2810c: 1.5
